Tests used:
[1] = molecular target: Serine/threonine-protein kinase 26 (Homo sapiens) (UniProt Q9P289); details: Compound concentration 1000.0 nM
[2] = molecular target: cAMP-dependent protein kinase catalytic subunit alpha (Homo sapiens) (UniProt P17612); details: Compound concentration 1000.0 nM
[3] = molecular target: Ephrin type-B receptor 1 (Homo sapiens) (UniProt P54762); details: Compound concentration 1000.0 nM
[4] = molecular target: Serine/threonine-protein kinase 17B (Homo sapiens) (UniProt O94768); details: Compound concentration 1000.0 nM
[5] = molecular target: Serine/threonine-protein kinase 36 (Homo sapiens) (UniProt Q9NRP7); details: Compound concentration 1000.0 nM
[6] = molecular target: GABA-A receptor; anion channel (Rattus norvegicus) (UniProt O09028+P15431+P18506+P18508+P19969+P20236+P23574+P23576+P28471+P28473+P30191+P62813+P63079+P63138+Q91ZM7+Q9ES14); details: Compound concentration 10.0 uM
[7] = molecular target: T1, 5-hydroxytryptamine receptor 3A (Homo sapiens) (UniProt P46098); details: Compound concentration 10.0 uM
T1 sequence (whole entry): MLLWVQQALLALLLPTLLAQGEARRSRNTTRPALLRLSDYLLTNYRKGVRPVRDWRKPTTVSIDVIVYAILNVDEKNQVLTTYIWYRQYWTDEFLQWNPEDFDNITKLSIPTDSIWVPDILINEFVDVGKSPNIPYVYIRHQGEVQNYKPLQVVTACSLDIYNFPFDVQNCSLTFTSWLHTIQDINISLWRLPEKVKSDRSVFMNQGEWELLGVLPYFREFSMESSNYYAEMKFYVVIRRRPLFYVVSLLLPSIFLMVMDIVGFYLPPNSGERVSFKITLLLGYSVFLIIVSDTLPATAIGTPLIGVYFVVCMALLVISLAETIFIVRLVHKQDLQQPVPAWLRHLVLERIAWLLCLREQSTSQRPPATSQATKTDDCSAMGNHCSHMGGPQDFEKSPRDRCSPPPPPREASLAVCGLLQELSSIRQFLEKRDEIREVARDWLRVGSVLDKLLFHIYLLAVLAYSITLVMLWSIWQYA

[8] = molecular target: Serine/threonine-protein kinase BRSK2 (Homo sapiens) (UniProt Q8IWQ3); details: Compound concentration 1000.0 nM
[9] = molecular target: Mitogen-activated protein kinase 4 (Homo sapiens) (UniProt P31152); details: Compound concentration 1000.0 nM
Sequence of Mitogen-activated protein kinase 4 (Homo sapiens) (P31152 whole entry): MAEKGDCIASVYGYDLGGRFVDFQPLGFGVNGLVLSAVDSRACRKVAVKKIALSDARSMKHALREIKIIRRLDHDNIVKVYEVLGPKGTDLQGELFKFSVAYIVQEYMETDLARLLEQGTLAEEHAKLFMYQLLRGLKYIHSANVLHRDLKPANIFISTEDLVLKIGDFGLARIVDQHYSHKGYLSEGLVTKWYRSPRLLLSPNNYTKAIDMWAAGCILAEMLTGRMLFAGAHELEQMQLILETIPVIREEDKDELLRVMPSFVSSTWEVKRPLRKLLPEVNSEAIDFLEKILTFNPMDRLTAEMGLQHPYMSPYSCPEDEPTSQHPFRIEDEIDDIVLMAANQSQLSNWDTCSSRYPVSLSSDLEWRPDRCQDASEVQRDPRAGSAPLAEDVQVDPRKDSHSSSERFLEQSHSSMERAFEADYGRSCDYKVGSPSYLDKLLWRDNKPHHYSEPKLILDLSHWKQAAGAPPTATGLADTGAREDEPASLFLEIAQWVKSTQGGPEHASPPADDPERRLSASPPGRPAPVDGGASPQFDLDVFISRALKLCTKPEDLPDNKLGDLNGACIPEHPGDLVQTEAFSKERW

[10] = molecular target: Mitogen-activated protein kinase kinase kinase 13 (Homo sapiens) (UniProt O43283); details: Compound concentration 1000.0 nM
[11] = test system: Receptor-type tyrosine-protein kinase FLT3 (Homo sapiens), P36888 [R834Q]; details: Compound concentration 1000.0 nM
[12] = molecular target: Ephrin type-B receptor 6 (Homo sapiens) (UniProt O15197); details: Compound concentration 1000.0 nM
[13] = molecular target: MAP/microtubule affinity-regulating kinase 4 (Homo sapiens) (UniProt Q96L34); details: Compound concentration 1000.0 nM
Sequence of MAP/microtubule affinity-regulating kinase 4 (Homo sapiens) (Q96L34 whole entry): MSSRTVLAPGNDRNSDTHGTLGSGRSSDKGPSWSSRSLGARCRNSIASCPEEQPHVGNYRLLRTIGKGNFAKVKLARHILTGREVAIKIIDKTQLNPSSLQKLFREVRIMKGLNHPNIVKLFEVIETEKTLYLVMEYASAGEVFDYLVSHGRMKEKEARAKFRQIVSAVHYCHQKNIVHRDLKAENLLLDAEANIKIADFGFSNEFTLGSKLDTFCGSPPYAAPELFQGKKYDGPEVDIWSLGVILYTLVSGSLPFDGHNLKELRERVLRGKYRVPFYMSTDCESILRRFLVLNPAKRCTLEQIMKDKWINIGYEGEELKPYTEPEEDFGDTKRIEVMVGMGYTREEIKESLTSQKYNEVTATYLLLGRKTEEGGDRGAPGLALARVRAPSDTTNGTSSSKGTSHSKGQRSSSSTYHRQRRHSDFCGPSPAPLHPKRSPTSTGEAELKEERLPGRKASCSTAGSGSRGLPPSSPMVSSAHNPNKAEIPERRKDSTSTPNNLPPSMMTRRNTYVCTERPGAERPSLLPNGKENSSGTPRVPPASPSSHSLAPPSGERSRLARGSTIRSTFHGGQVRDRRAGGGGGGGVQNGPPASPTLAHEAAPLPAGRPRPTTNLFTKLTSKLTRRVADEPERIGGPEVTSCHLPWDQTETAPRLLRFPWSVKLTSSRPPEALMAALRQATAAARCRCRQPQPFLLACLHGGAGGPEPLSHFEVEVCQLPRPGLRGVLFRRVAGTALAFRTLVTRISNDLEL

[14] = test system: Tyrosine-protein kinase ABL1 (Homo sapiens), P00519 [F317I]; details: Compound concentration 1000.0 nM
Sequence of Tyrosine-protein kinase ABL1 (Homo sapiens), P00519 [F317I] (P00519 whole entry F317I): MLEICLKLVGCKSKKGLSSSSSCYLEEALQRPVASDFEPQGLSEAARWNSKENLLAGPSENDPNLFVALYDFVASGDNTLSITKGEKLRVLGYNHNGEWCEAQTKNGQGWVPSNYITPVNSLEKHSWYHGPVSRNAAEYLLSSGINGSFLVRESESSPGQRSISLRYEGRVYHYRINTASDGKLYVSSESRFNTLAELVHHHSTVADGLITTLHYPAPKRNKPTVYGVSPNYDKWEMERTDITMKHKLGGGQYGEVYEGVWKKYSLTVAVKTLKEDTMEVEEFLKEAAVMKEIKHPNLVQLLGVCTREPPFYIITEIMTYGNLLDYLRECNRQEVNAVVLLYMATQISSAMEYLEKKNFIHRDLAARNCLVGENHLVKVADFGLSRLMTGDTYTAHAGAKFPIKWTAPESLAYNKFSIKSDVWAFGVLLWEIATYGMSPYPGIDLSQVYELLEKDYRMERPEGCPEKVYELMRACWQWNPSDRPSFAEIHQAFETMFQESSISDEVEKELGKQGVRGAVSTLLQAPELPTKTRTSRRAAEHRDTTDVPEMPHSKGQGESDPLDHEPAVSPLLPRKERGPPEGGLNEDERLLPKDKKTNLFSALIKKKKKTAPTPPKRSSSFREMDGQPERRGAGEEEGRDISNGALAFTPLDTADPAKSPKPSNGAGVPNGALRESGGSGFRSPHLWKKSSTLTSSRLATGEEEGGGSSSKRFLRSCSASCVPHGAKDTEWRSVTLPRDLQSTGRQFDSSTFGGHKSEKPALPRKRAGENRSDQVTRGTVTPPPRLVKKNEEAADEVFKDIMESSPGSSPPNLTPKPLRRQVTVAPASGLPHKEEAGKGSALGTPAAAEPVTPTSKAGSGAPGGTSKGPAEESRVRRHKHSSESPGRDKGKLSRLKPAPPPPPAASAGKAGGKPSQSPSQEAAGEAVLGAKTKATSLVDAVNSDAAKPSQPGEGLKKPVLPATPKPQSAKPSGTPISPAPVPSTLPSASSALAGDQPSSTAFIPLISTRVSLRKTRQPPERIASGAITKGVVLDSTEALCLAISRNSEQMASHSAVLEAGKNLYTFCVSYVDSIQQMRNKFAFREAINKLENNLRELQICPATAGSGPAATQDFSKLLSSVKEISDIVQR

[15] = molecular target: RAF proto-oncogene serine/threonine-protein kinase (Homo sapiens) (UniProt P04049); details: Compound concentration 1000.0 nM
[16] = molecular target: Cyclin-dependent kinase 19 (Homo sapiens) (UniProt Q9BWU1); details: Compound concentration 1000.0 nM
Sequence of Cyclin-dependent kinase 19 (Homo sapiens) (Q9BWU1 whole entry): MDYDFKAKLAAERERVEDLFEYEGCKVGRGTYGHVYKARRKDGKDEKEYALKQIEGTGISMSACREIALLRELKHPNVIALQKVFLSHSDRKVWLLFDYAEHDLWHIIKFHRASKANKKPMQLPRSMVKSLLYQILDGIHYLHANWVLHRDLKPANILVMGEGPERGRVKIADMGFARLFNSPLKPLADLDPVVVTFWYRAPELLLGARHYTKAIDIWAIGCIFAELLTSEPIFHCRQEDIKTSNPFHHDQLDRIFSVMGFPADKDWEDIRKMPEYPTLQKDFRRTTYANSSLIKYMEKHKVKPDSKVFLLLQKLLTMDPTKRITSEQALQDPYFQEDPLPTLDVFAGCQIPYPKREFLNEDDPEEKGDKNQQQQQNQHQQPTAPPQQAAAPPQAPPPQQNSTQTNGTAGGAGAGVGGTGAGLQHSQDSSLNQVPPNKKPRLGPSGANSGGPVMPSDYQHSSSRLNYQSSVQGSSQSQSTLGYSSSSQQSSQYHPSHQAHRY

[17] = molecular target: T2, Alpha-1D adrenergic receptor (Homo sapiens) (UniProt P25100); details: Compound concentration 10.0 uM
T2 sequence (whole entry): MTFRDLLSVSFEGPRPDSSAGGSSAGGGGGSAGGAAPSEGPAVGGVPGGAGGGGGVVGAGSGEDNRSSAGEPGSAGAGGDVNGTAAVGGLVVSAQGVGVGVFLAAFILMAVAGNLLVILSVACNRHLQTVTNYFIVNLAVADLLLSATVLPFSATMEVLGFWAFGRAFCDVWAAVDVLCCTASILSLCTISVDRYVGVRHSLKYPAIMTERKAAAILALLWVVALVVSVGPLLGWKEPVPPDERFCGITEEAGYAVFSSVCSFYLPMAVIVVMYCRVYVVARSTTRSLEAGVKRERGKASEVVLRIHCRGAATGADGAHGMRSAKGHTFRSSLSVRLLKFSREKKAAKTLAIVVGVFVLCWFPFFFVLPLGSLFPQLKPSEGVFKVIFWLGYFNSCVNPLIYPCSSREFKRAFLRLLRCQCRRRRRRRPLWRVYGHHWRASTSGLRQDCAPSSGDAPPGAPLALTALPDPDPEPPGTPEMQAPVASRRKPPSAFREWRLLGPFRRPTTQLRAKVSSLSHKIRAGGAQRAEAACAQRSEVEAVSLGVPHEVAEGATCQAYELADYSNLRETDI

[18] = molecular target: Serine/threonine-protein kinase Nek3 (Homo sapiens) (UniProt P51956); details: Compound concentration 1000.0 nM
[19] = molecular target: Tyrosine-protein kinase Yes (Homo sapiens) (UniProt P07947); details: Compound concentration 1000.0 nM
[20] = molecular target: Serine/threonine-protein kinase Nek1 (Homo sapiens) (UniProt Q96PY6); details: Compound concentration 1000.0 nM
[21] = molecular target: 5-hydroxytryptamine receptor 6 (Homo sapiens) (UniProt P50406); details: Compound concentration 10.0 uM
[22] = molecular target: Mitogen-activated protein kinase 13 (Homo sapiens) (UniProt O15264); details: Compound concentration 1000.0 nM
[23] = molecular target: Mitogen-activated protein kinase 8 (Homo sapiens) (UniProt P45983); details: Compound concentration 1000.0 nM
[24] = molecular target: Transient receptor potential cation channel subfamily M member 6 (Homo sapiens) (UniProt Q9BX84); details: Compound concentration 1000.0 nM
Sequence of Transient receptor potential cation channel subfamily M member 6 (Homo sapiens) (Q9BX84 whole entry): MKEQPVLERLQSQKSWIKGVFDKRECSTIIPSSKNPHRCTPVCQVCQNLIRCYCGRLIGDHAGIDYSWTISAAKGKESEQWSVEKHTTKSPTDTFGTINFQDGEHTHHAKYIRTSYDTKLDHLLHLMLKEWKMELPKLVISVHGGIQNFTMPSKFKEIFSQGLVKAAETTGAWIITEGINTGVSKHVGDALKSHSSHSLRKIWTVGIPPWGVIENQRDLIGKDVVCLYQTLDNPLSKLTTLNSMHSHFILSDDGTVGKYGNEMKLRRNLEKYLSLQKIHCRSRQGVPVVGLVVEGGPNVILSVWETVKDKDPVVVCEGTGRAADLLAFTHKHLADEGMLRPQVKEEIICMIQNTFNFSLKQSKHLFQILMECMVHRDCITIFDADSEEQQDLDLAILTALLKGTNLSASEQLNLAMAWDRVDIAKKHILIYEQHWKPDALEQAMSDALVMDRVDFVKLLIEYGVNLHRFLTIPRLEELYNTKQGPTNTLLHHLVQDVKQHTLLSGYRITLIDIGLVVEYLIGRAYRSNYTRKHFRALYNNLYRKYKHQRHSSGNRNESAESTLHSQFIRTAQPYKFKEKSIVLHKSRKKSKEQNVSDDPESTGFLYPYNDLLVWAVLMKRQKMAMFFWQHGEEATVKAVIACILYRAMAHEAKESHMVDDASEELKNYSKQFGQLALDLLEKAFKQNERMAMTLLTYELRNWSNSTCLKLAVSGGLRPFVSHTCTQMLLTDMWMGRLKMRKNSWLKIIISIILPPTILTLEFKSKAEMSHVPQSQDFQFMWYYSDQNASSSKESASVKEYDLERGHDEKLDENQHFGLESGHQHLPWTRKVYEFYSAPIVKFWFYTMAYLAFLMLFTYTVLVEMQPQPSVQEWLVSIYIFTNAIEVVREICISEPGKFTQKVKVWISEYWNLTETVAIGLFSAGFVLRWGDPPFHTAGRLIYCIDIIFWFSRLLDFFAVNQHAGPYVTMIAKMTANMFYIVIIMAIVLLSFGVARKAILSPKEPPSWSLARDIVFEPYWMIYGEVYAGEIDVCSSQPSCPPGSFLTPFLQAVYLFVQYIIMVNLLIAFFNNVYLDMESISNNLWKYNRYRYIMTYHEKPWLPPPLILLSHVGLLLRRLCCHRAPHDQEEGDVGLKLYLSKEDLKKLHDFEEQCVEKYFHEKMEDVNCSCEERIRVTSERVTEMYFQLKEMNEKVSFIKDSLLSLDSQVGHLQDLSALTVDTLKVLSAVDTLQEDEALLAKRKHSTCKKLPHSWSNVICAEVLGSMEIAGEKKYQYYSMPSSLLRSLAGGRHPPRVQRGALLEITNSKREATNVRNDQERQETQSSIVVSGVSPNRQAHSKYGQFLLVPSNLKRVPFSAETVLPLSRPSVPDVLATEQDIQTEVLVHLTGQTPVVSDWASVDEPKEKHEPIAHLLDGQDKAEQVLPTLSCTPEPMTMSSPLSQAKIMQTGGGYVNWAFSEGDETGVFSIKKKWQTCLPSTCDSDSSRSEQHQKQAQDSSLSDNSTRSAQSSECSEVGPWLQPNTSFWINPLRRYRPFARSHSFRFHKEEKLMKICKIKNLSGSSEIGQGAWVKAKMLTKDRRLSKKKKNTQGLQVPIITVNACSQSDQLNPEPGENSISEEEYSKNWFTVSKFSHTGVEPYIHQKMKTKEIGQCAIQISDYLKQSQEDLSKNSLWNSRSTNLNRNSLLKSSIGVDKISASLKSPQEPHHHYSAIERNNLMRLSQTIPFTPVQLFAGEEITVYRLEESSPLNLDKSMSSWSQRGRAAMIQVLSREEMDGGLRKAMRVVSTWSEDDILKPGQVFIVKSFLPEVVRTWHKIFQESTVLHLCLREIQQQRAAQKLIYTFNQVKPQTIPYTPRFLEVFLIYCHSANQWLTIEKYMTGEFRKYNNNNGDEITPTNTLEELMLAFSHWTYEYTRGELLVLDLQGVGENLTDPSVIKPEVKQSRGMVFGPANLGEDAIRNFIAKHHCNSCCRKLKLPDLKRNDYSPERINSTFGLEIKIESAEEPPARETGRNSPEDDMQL

[25] = molecular target: Serine/threonine-protein kinase 24 (Homo sapiens) (UniProt Q9Y6E0); details: Compound concentration 1000.0 nM
[26] = molecular target: RAC-beta serine/threonine-protein kinase (Homo sapiens) (UniProt P31751); details: Compound concentration 1000.0 nM
[27] = molecular target: Non-receptor tyrosine-protein kinase TYK2 (Homo sapiens) (UniProt P29597); details: Compound concentration 1000.0 nM
[28] = molecular target: Ribosomal protein S6 kinase alpha-4 (Homo sapiens) (UniProt O75676); details: Compound concentration 1000.0 nM
[29] = molecular target: Calcium/calmodulin-dependent protein kinase type IV (Homo sapiens) (UniProt Q16566); details: Compound concentration 1000.0 nM

CC(=O)N1CCC(c2ccc(C(=O)NC(=N)N)cc2C(F)(F)F)CC1 [BI 9627]
inactive: residual activity [1] 97% | residual activity [2] 100% | residual activity [3] 100% | residual activity [4] 100% | residual activity [5] 100% | inhibition [6] 13.9% | inhibition [7] -6.68% | residual activity [8] 100% | residual activity [9] 100% | residual activity [10] 100% | residual activity [11] 93% | residual activity [12] 100% | residual activity [13] 100% | residual activity [14] 92% | residual activity [15] 100% | residual activity [16] 100% | inhibition [17] 50% | residual activity [18] 79% | residual activity [19] 98% | residual activity [20] 100% | inhibition [21] 1.25% | residual activity [22] 83% | residual activity [23] 73% | residual activity [24] 98% | residual activity [25] 100% | residual activity [26] 99% | residual activity [27] 100% | residual activity [28] 100% | residual activity [29] 93%

CC(=O)N1CCC(c2ccc(C(=O)NC3=NCCN3)cc2C(F)(F)F)CC1 [BI 0054]
inactive: residual activity [1] 89% | residual activity [2] 100% | residual activity [3] 100% | residual activity [4] 100% | residual activity [5] 83% | inhibition [6] 25.3% | inhibition [7] -4.49% | residual activity [8] 100% | residual activity [9] 87% | residual activity [10] 100% | residual activity [11] 100% | residual activity [12] 100% | residual activity [13] 100% | residual activity [14] 77% | residual activity [15] 100% | residual activity [16] 100% | inhibition [17] 50% | residual activity [18] 63% | residual activity [19] 100% | residual activity [20] 100% | inhibition [21] 0.267% | residual activity [22] 75% | residual activity [23] 84% | residual activity [24] 90% | residual activity [25] 97% | residual activity [26] 91% | residual activity [27] 100% | residual activity [28] 81% | residual activity [29] 92%
